{"source": "patent US9914932B2", "about": "“Agrobacterium-mediated transformation of lipomyces” (Battelle Memorial Institute, priority 2014, dated 2018)", "key": {"L. starkeyi": {"system": "L. starkeyi", "test": "Antibiotic growth suppression on yeast synthetic complete (SC) medium agar plates", "format": "cell-based, Lipomyces starkeyi", "conditions": "30° C.", "text": "(§1) For effective selection of transgene expression in Lipomyces strains, several antibiotics were chosen to examine their effects on Lipomyces growth on yeast synthetic complete (SC, Sunrise Science Products, San Diego, Calif.) and yeast extract-peptone-detrose (YPD) medium plates, which included phosphinothricin ammonium (basta), geneticin (G418), hygromycin B (hyg), pyrithiamine and Zeocin (Zeo). Two day old Lipomyces cells grown in YPD liquid culture were used for evaluation of the antibiotic selection on the agar plates of SC or YPD. The original cells were diluted sequentially in 1:10 ratio with dH2O for four times and 10 μl cells from original culture and each dilution were spotted onto the proper agar medium plates. The plates were incubated in 30° C. incubator for 3 days. The inhibition effects of selected antibiotics on the selected plate were documented with Nikon D300s SLR digital camera (Nikon Inc., Melville, N.Y.) or the stereomicroscope-Leica MZ16 (Leica Microsystems, Buffalo Grove, Ill.).\n(§2) About 5 to 10 colonies of 4 day old Lipomyces strains (except L. lipofer NRRL Y-11555 that required additional 4 days growth and more colonies due to its slow growth) grown on YPD medium agar plates were transferred into a 50 ml YPD liquid flask culture and grown at 30° C. and 200 rpm for 50 hrs. […]"}, "[1]": {"system": "L. lipofer (NRRL Y-11555)", "test": "Antibiotic growth suppression on SC medium agar plates", "format": "cell-based, Lipomyces lipofer", "conditions": "100 mg/l, 30° C., FIG. 3", "text": "as §1, §2"}, "[2]": {"system": "L. doorenjongii (NRRL Y-27504)", "test": "Antibiotic growth suppression on SC medium agar plates", "format": "cell-based, Lipomyces doorenjongii", "conditions": "100 mg/l, 30° C., FIG. 3", "text": "as §1, §2"}, "[3]": {"system": "all L. starkeyi strains and Lipomyces species", "test": "Hygromycin B growth suppression on YPD agar plates", "format": "cell-based, Lipomyces sp.", "conditions": "30° C., all strains and species except L. suomiensis NRRL Y-17356, FIG. 4", "text": "as §1, §2"}, "[4]": {"system": "L. suomiensis strain NRRL Y-17356", "test": "Hygromycin B growth suppression on YPD agar plates", "format": "cell-based, Lipomyces suomiensis", "conditions": "30° C., L. suomiensis NRRL Y-17356, FIG. 4", "text": "as §1, §2"}, "Lipomyces strains": {"system": "Lipomyces strains", "test": "Hygromycin B inhibition on Aspergillus minimal medium", "format": "cell-based, Lipomyces sp.", "conditions": "10 mg/l"}, "[5]": {"system": "parent Lipomyces strains (Y-)", "test": "Hygromycin resistance of parent Lipomyces cells, 1/10 series dilutions on YPD agar plates", "format": "cell-based, Lipomyces sp.", "conditions": "10 or 25 mg/l hygromycin B with 250 mg/L cefotaxime, FIG. 10", "procedure": "The hygromycin resistance of parent and transformed Lipomyces cells in a 1/10 series dilutions were compared on the same YPD agar plates with either 10 or 25 mg/l hygromycin B (hyg10 or hyg25, respectively) and 250 mg/L cefotaxime. […] The integration of pTef1-hph transgene expression cassette (FIG. 11A) was also confirmed by Southern blotting analysis which indicated 1 to 2 copies of the gene were inserted (FIG. 11B)."}}}
{"smiles": "CN[C@H]1C[C@@H](N)[C@H](O)[C@@H](O[C@@H]2O[C@H](CO)[C@H](O)[C@@H]3OC4(O[C@H]23)O[C@H]([C@@H](N)CO)[C@H](O)[C@H](O)[C@H]4O)[C@@H]1O", "note": "(some centres unmarked) [hygromycin B]", "values": [{"measurement": "growth selection (growth suppression) of L. starkeyi", "setting": "L. starkeyi; 100 mg/l hygromycin B, FIG. 2", "result": "effective"}, {"measurement": "growth suppression of three other L. starkeyi strains (NRRL Y-27493, NRRL Y-27494, NRRL Y-27495)", "setting": "L. starkeyi; 100 mg/l, FIG. 3", "result": "effectively suppress the growth"}, {"measurement": "growth suppression of L. lipofer (NRRL Y-11555)", "setting": "[1]", "result": "effectively suppress the growth"}, {"measurement": "growth suppression of L. doorenjongii (NRRL Y-27504)", "setting": "[2]", "result": "effectively suppress the growth"}, {"measurement": "concentration sufficient to suppress the growth", "setting": "[3]", "result": 2.5, "unit": "mg/L"}, {"measurement": "concentration needed to suppress the growth", "setting": "[4]", "result": "at least 10 mg/l"}, {"measurement": "inhibition of Lipomyces strains", "setting": "Lipomyces strains", "result": "effective inhibition"}, {"measurement": "growth of parent strains under hygromycin selection", "setting": "[5]", "result": "severely suppressed"}]}
